The values below come from publication PMC8645336, “Benchmarking a highly selective USP30 inhibitor for enhancement of mitophagy and pexophagy” (Life Science Alliance, 2021).

Holding throughout (assay): biochemical
Parameters in all cases: Ubiquigent DUB profiler selectivity panel, remaining enzyme activity as % of control
What all share (conditions): read-out: % of control remaining

The target in one assay is T1, OTUD1 (Homo sapiens, UniProt Q5VV17).
T1 sequence (Q5VV17 1-481): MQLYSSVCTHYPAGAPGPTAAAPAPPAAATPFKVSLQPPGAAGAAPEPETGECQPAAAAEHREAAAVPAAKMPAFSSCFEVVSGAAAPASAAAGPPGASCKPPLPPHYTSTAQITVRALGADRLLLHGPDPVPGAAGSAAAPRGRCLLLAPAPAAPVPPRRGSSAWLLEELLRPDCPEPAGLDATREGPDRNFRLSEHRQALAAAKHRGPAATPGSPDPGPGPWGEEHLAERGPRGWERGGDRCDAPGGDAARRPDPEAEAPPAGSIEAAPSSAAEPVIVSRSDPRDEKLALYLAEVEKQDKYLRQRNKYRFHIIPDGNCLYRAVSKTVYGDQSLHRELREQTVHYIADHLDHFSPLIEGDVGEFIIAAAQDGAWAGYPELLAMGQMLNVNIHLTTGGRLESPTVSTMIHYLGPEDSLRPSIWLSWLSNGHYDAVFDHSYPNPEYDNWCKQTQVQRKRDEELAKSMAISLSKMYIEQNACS
The gist of the method:
(§1)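 CMPD-39 selectivity was profiled at 1-100 μM across >40 DUBs. Cellular engagement used 2 h CMPD-39 pretreatment, then HA-Ub-PA probe for 10 min at 37°C, with USP30 band shift on immunoblot. TOMM20 ubiquitylation was blotted in YFP-PRKN hTERT-RPE1 cells after 1 h antimycin A/oligomycin A (1 μM each).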

The next assay concerns the target T2, OTU1 (Homo sapiens, UniProt Q5VVQ6).
T2 construct: gene YOD1
T2 sequence (Q5VVQ6 1-348): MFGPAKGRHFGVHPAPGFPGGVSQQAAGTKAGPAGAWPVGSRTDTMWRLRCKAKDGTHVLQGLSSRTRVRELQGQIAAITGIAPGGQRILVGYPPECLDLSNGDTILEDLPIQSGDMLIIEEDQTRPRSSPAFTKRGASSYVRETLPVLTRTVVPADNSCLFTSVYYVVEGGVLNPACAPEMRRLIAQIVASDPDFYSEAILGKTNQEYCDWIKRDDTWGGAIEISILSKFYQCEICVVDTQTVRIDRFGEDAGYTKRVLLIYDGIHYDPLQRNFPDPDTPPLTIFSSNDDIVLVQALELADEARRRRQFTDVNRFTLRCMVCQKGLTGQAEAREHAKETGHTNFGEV
A digest of the protocol:
as §1

A further assay deals with T3, OTUB2 (Homo sapiens, UniProt Q96DC9).
T3 sequence (Q96DC9 1-234): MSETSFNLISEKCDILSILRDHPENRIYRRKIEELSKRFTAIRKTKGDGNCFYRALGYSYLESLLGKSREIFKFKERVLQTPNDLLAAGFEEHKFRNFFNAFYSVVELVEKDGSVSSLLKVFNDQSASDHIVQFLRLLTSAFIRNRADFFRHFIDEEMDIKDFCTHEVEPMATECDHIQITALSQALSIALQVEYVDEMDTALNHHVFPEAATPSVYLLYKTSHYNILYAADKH
A digest of the protocol:
as §1

For `CC(C)(C)NS(=O)(=O)c1ccc(NC(=O)[C@H](Cc2ccccc2)NC(=O)c2ccc(F)cc2)cc1` [compound 39, CMPD-39], at OTUD1, the remaining activity at 1 µM is 99.9%, the remaining activity at 10 µM was 93.4% and the remaining activity at 100 µM is 98%. Moreover, at OTU1, the remaining activity at 1 µM turned out to be 105%, the remaining activity at 10 µM amounted to 97.8% and the remaining activity at 100 µM worked out at 101%. For the same compound, on OTUB2, the remaining activity at 1 µM is 103%, the remaining activity at 10 µM was 97.5% and the remaining activity at 100 µM stood at 97.3%.
